Patent US6815546B2, “Analogues of camptothecin, their use as medicaments and the pharmaceutical compositions containing them” (Societe de Recherches et d'Applications Scientifiques …, priority 1995, dated 2004)

Test system: Adenocarcinoma HT29 cells from the human colon
Assay: Adenocarcinoma HT29 cell proliferation, WST1 (compounds in DMA)
Assay type: cell-based
Conditions: final DMA 0.1% (v/v)
Method: c. Adenocarcinoma HT29 cells from the human colon are cultured in a single layer at 37° in a humidified atmosphere containing 95% of air and 5% of CO2, in a modified essential Earle's medium at 4.5 g/l (Gibco, Paisley, United Kingdom); completed with 10% of inactivated foetal calf serum, 2 mM of glutamine, and 50 μg/ml of gentamycin (Gibco, Paisley, United Kingdom).
Approximately 2000 cells are seeded with the culture medium above in the wells of a microplate (96 wells, flat-bottomed) and incubated for 24 hours. Solutions in N,N-dimethyl-acetamide (DMA) of each of the examples of the invention, diluted in the culture medium so that the final concentration of DMA is 0.1% (v/v), are added to the plate cultures in order to obtain final concentration ranges from 1×10^−13 to 1×10^−5 M, and the cells are incubated for 72 hours.
The WST1 staining reagent, (Boehringer Mannheim, Germany) is then added to each well at a final concentration of 9%, and the cells are incubated for 2 hours at 37° C. This stage allows the mitochondrial deshydrogenase of the living cells to convert WST1 orange tetrazolium salt into crimson formazan. The resulting stained solutions are quantified by dual-beam detection ([…]) using a multi-cuvette scanning spectrophotometer.
The results shown in the following table III C) are expressed in terms of inhibitory concentration at 50% (IC50, in nM), accompanied by a confidence interval.

SMILES	IC50 (72 hours) [nM]	IC50 (Homo sapiens, HT-29, 72 hours) [nM]
CC[C@@]1(O)CC(=O)OCc2c1cc1n(c2=O)Cc2c-1nc1cc(F)ccc1c2-c1ccc(N(C)C)cc1 [Example 167, (5R)-12-(4-dimethylaminophenyl)-5-ethyl-9-fluoro-5-hydroxy-4,5,13,15-tetrahydro-1H,3H-oxepino[3′,4′:6,7]indolizino [1,2-b]quinoleine-3,15-dione]	13	–
CC[C@@]1(O)CC(=O)OCc2c1cc1n(c2=O)Cc2cc3ccc(F)cc3nc2-1 [Example 84, (5R)-5-ethyl-9-fluoro-5-hydroxy-4,5,13,15-tetrahydro-1H,3H-oxepino[3′,4′:6,7]indolizino[1,2-b]quinoline-3,15-dione]	–	2.5
CC[C@@]1(O)CC(=O)OCc2c1cc1n(c2=O)Cc2c-1nc1cc(F)ccc1c2-c1ccc(C(F)(F)F)cc1 [Example 165, (5R)-5-ethyl-9-fluoro-5-hydroxy-12-(4-trifluoromethylphenyl)-4,5,13,15-tetrahydro-1H,3H-oxepino[3′,4′:6,7]indolizino[1,2-b]quinoleine-3,15-dione]	1.7	–
CC[C@@]1(O)CC(=O)OCc2c1cc1n(c2=O)Cc2c-1nc1ccccc1c2-c1ccc(C)cc1 [Example 91, (5R)-5-ethyl-5-hydroxy-12-(4-methylphenyl)-4,5,13,15-tetrahydro-1H,3H-oxepino[3′,4′:6,7]indolizino[1,2-b]quinoline-3,15-dione]	–	11
CCCc1c2c(nc3cc(F)cc(F)c13)-c1cc3c(c(=O)n1C2)COC(=O)C[C@]3(O)CC [Example 169, (5R)-5-ethyl-9,11-difluoro-5-hydroxy-12-propyl-4,5,13,15-tetrahydro-1H,3H-oxepino[3′,4′:6,7]indolizino[1,2-b]quinoleine-3,15-dione]	2.3	–
CCCCc1c2c(nc3cc(F)c(F)cc13)-c1cc3c(c(=O)n1C2)COC(=O)C[C@]3(O)CC [Example 95, (5R)-12-butyl-5-ethyl-9,10-difluoro-5-hydroxy-4,5,13,15-tetrahydro-1H,3H-oxepino[3′,4′:6,7]indolizino[1,2-b]quinoline-3,15-dione]	–	8.5
CC[C@@]1(O)CC(=O)OCc2c1cc1n(c2=O)Cc2cc3c(F)cc(F)cc3nc2-1 [Example 100, (5R)-5-ethyl-9,11-difluoro-5-hydroxy-4,5,13,15-tetrahydro-1H,3H-oxepino[3′,4′:6,7]indolizino[1,2-b]quinoline-3,15-dione]	–	2.2
CCc1c2c(nc3cc(F)cc(F)c13)-c1cc3c(c(=O)n1C2)COC(=O)C[C@]3(O)CC [Example 102, (5R)-5,12-diethyl-9,1 1-difluoro-5-hydroxy-4,5,13,15-tetrahydro-1H,3H-oxepino[3′,4′:6,7]indolizino[1,2-b]quinoline-3,15-dione]	–	8
CC[C@@]1(O)CC(=O)OCc2c1cc1n(c2=O)Cc2c-1nc1cc(F)ccc1c2-c1ccc(OC(F)(F)F)cc1 [Example 166, (5R)-5-ethyl-9-fluoro-5-hydroxy-12-(4-trifluoromethoxyphenyl)-4,5,13,15-tetrahydro-1H,3H-oxepino[3′,4′:6,7]indolizino[1,2-b]quinoleine-3,15-dione]	8.9	–
CC[C@@]1(O)CC(=O)OCc2c1cc1n(c2=O)Cc2c-1nc1cc(F)c(F)cc1c2-c1ccccc1 [Example 93, (5R)-5-ethyl-9,10-difluoro-5-hydroxy-12-phenyl-4,5,13,15-tetrahydro-1H,3H-oxepino[3′,4′:6,7]indolizino[1,2-b]quinoline-3,15-dione]	–	12
CC[C@@]1(O)CC(=O)OCc2c1cc1n(c2=O)Cc2c-1nc1cc(F)ccc1c2CCc1ccccc1 [Example 140, (5R)-5-ethyl-9-fluoro-5-hydroxy-12-phenethyl-4,5,13,15-tetrahydro-1H,3H-oxepino[3′,4′:6,7]indolizino[1,2-b]quinoline-3,15-dione]	–	3.2
CC[C@@]1(O)CC(=O)OCc2c1cc1n(c2=O)Cc2c-1nc1cc(F)ccc1c2-c1ccc(F)cc1 [Example 115, (5R)-5-ethyl-9-fluoro-12-(4-fluorophenyl)-5-hydroxy-4,5,13,15-tetrahydro-1H,3H-oxepino[3′,4′:6,7]indolizino[1,2-b]quinoline-3,15-dione]	–	0.26
